Results on 25 compounds are retold here after patent publication US20230099344A1, “COMPOUNDS AND METHODS FOR THE TARGETED DEGRADATION OF IRAK-4” (Arvinas Operations, Inc., priority 2021, published 2023).

This assay concerns the target T1, IRAK-4 (Homo sapiens, UniProt Q9NWZ3).
T1 sequence (Q9NWZ3 1-460): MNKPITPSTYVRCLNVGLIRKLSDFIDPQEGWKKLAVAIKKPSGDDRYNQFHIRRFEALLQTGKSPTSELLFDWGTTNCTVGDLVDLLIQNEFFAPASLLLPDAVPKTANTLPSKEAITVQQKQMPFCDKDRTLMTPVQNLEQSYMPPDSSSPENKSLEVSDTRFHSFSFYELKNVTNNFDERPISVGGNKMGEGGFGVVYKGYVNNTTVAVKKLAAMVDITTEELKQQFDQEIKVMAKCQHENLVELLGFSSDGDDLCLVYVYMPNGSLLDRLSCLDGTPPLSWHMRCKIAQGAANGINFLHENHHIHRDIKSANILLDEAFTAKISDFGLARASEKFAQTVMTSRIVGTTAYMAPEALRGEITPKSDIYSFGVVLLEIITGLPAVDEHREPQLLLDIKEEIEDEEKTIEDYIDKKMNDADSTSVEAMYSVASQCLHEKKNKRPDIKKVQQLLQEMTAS
Briefly: IRAK-4 ELISA, PBMC degradation. It is filed as cell-based. Details: endogenous in cells; host or cells: PBMC. Particulars: treated overnight. The procedure, abridged:
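OCI-Ly10 cells (1×10^6/ml) or PBMC (2×10^6/ml) treated with compound on the day of seeding and incubated overnight. IRAK-4 protein remaining in cell lysates quantified by sandwich ELISA.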
Background: An ELISA detects its analyte on a solid surface through an enzyme-linked reagent.

As a reminder, the DC50 is the midpoint of the concentration-degradation curve. One may read the Dmax as the greatest extent of degradation seen. A higher Dmax goes with a fuller loss of target. As for `O=C1CCC(N2C(=O)c3cccc(N4CC(F)(CN5CCC(n6cc7cc(NC(=O)c8cnn9cccnc89)c(OCC8CC8)cc7n6)CC5)C4)c3C2=O)C(=O)N1` (stereo not drawn) [Example 270, N-(6-(cyclopropylmethoxy)-2-(1-((1-(2-(2,6-dioxopiperidin-3-yl)-1,3-dioxoisoindolin-4-yl)-3-fluoroazetidin-3-yl)methyl)piperidin-4-yl)-2H-indazol-5-yl)pyrazolo[1,5-a]pyrimidine-3-carboxamide], the DC50 is no less than 10 nM, the Dmax is less than 70% and the “PBMC DC90” value is listed as “D (D represents a DC90 value ≥50 nM)”.

As for `CC(C)Oc1cc2nn(C3CCN(CC4(F)CN(c5cccc6c5C(=O)N(C5CCC(=O)NC5=O)C6=O)C4)CC3)cc2cc1NC(=O)c1cnn2cccnc12` (stereo not drawn) [Example 271, N-(2-(1-((1-(2-(2,6-dioxopiperidin-3-yl)-1,3-dioxoisoindolin-4-yl)-3-fluoroazetidin-3-yl)methyl)piperidin-4-yl)-6-isopropoxy-2H-indazol-5-yl)pyrazolo[1,5-a]pyrimidine-3-carboxamide], the DC50 lay in the range of 5 to 10 nM, the Dmax was in the range of 80 to 90% and the “PBMC DC90” value was “D (D represents a DC90 value ≥50 nM)”.

For the compound `CC(C)Oc1cc2c(cc1NC(=O)c1cnn3cccnc13)CN([C@H]1CC[C@H](N3CCN(c4ccc5c(c4)CN(C4CCC(=O)NC4=O)C5=O)CC3)CC1)C2=O` (stereo partly drawn) [Example 273, N-(2-((1r,4r)-4-(4-(2-(2,6-dioxopiperidin-3-yl)-1-oxoisoindolin-5-yl)piperazin-1-yl)cyclohexyl)-6-isopropoxy-1-oxoisoindolin-5-yl)pyrazolo[1,5-a]pyrimidine-3-carboxamide], the DC50 was less than 1 nM, the Dmax was no less than 90% and the “PBMC DC90” value is “A (A represents a DC90 value <10.0 nM)”.

Take `CC(C)Oc1cc2c(cc1NC(=O)c1cnn3cccnc13)CN(C1CCN(C3(C)CN(c4ccc5c(c4)CN(C4CCC(=O)NC4=O)C5=O)C3)CC1)C2=O` (stereo not drawn) [Example 275]: the DC50 is less than 1 nM, the Dmax is no less than 90% and the “PBMC DC90” value is recorded as “A (A represents a DC90 value <10.0 nM)”.

With `CC(C)Oc1cc2c(cc1NC(=O)c1cnn3cccnc13)CN([C@H]1CC[C@@H](N3CCN(c4ccc5c(c4)CN(C4CCC(=O)NC4=O)C5=O)CC3)CC1)C2=O` (stereo partly drawn) [Example 276], the DC50 is less than 1 nM, the greatest degradation seen (Dmax) fell in the range of 80 to 90% and the “PBMC DC90” value is given as “A (A represents a DC90 value <10.0 nM)”.

As to `CC(C)Oc1cc2c(cc1NC(=O)c1cnn3cccnc13)CN([C@H]1CC[C@@H](N3CC4(CN(c5ccc6c(c5)CN(C5CCC(=O)NC5=O)C6=O)C4)C3)CC1)C2=O` (stereo partly drawn) [Example 277], the DC50 is less than 1 nM, the Dmax is no less than 90% and the “PBMC DC90” value is reported as “A (A represents a DC90 value <10.0 nM)”.

`CC(C)Oc1cc2c(cc1NC(=O)c1cnn3cccnc13)CN([C@H]1CC[C@H](N3CC4(CN(c5ccc6c(c5)CN(C5CCC(=O)NC5=O)C6=O)C4)C3)CC1)C2=O` (stereo partly drawn) [Example 284]: the DC50 was less than 1 nM, the Dmax was no less than 90% and the “PBMC DC90” value is recorded as “A (A represents a DC90 value <10.0 nM)”.

Turning to `CC(C)Oc1cc2c(cc1NC(=O)c1cnn3cccnc13)CN(C1CCN(CC3CCN(c4ccc(C(=O)NC5CCC(=O)NC5=O)c(F)c4)CC3)CC1)C2=O` (stereo not drawn) [Example 286, N-[2-[1-[[1-[4-[(2,6-dioxo-3-piperidyl)carbamoyl]-3-fluoro-phenyl]-4-piperidyl]methyl]-4-piperidyl]-6-isopropoxy-1-oxo-isoindolin-5-yl]pyrazolo[1,5-a]pyrimidine-3-carboxamide], the DC50 lay in the range of 1 to 5 nM; the Dmax was no less than 90%; the “PBMC DC90” value is “B (B represents a DC90 value ≥10.0 nM and <25.0 nM)”.

As for `O=C1CCC(NC(=O)c2ccc(N3CC(F)(CN4CCC(n5cc6cc(NC(=O)c7cnn8cccnc78)c(OCC7CC7)cc6n5)CC4)C3)cc2F)C(=O)N1` (stereo not drawn) [Example 291], the DC50 was in the range of 1 to 5 nM; the Dmax was no less than 90%; the “PBMC DC90” value was “B (B represents a DC90 value ≥10.0 nM and <25.0 nM)”.

Regarding `CC(C)Oc1cc2c(cc1NC(=O)c1cnn3cccnc13)CN(C1CCN(CC3CN(c4ccc(C(=O)NC5CCC(=O)NC5=O)c(F)c4)C3)CC1)C2=O` (stereo not drawn) [Example 292], the DC50 was less than 1 nM, the greatest degradation seen (Dmax) is no less than 90% and the “PBMC DC90” value is “A (A represents a DC90 value <10.0 nM)”.

For `CC(C)Oc1cc2nn(C3CCN(CC4(F)CN(c5ccc(C(=O)NC6CCC(=O)NC6=O)c(F)c5)C4)CC3)cc2cc1NC(=O)c1cnn2cccnc12` (stereo not drawn) [Example 293], the DC50 was 1 to 5 nM; the Dmax is no less than 90%; the “PBMC DC90” value is “B (B represents a DC90 value ≥10.0 nM and <25.0 nM)”.

With `CC(C)Oc1cc2c(cc1NC(=O)c1cnn3cccnc13)CN(C1CCN(CC3(F)CN(c4ccc(C(=O)NC5CCC(=O)NC5=O)c(F)c4)C3)CC1)C2=O` (stereo not drawn) [Example 297], the DC50 lay in the range of 1 to 5 nM; the greatest degradation seen (Dmax) was no less than 90%; the “PBMC DC90” value is “B (B represents a DC90 value ≥10.0 nM and <25.0 nM)”.

For `O=C1CCC(NC(=O)c2ccc(N3CC(F)(CN4CCC(N5Cc6cc(NC(=O)c7cnn8cccnc78)c(OCC7CC7)cc6C5=O)CC4)C3)cc2F)C(=O)N1` (stereo not drawn) [Example 298], the DC50 was no less than 10 nM, the Dmax is no less than 90% and the “PBMC DC90” value is recorded as “D (D represents a DC90 value ≥50 nM)”.

For the compound `CC(C)Oc1cc2c(cc1NC(=O)c1cnn3ccc(N4CCOCC4)nc13)CN(C1CCC(N(C)C3CN(c4ccc5c(c4)CN(C4CCC(=O)NC4=O)C5=O)C3)CC1)C2=O` (stereo not drawn) [Example 315], the DC50 lay within 5 to 10 nM, the Dmax was less than 70% and the “PBMC DC90” value is “D (D represents a DC90 value ≥50 nM)”.

As for `CC(C)Oc1cc2c(cc1NC(=O)c1cnn3cccnc13)CN(C1CCC(N(C)C3CCN(c4ccc5c(c4)C(=O)N(C4CCC(=O)NC4=O)C5=O)CC3)CC1)C2=O` (stereo not drawn) [Example 316], the 50% degradation concentration (DC50) is less than 1 nM, the Dmax is no less than 90% and the “PBMC DC90” value is reported as “A (A represents a DC90 value <10.0 nM)”.

Consider `CC(C)Oc1cc2nn([C@H]3CC[C@H](N(C)C4CCN(c5ccc6c(c5)C(=O)N(C5CCC(=O)NC5=O)C6=O)CC4)CC3)cc2cc1NC(=O)c1cnn2cccnc12` (stereo partly drawn) [Example 317], for which the DC50 was less than 1 nM, the Dmax was no less than 90% and the “PBMC DC90” value is on record as “A (A represents a DC90 value <10.0 nM)”.

Turning to `CC(C)Oc1cc2nn([C@H]3CC[C@H](N(C)C4CN(c5ccc6c(c5)C(=O)N(C5CCC(=O)NC5=O)C6=O)C4)CC3)cc2cc1NC(=O)c1cnn2cccnc12` (stereo partly drawn) [Example 318], the DC50 is less than 1 nM, the Dmax was no less than 90% and the “PBMC DC90” value is “A (A represents a DC90 value <10.0 nM)”.

Turning to `CCN(C1CN(c2ccc3c(c2)C(=O)N(C2CCC(=O)NC2=O)C3=O)C1)[C@H]1CC[C@H](n2cc3cc(NC(=O)c4cnn5cccnc45)c(OC(C)C)cc3n2)CC1` (stereo partly drawn) [Example 319], the DC50 lay within 1 to 5 nM, the Dmax was in the range of 80 to 90% and the “PBMC DC90” value was “A (A represents a DC90 value <10.0 nM)”.

As to `CCN(C1CN(c2cccc3c2C(=O)N(C2CCC(=O)NC2=O)C3=O)C1)[C@H]1CC[C@H](n2cc3cc(NC(=O)c4cnn5cccnc45)c(OC(C)C)cc3n2)CC1` (stereo partly drawn) [Example 320], the DC50 is no less than 10 nM, the Dmax was in the range of 80 to 90% and the “PBMC DC90” value is on record as “D (D represents a DC90 value ≥50 nM)”.

As for `COc1cc(N2CC(N(C)[C@H]3CC[C@H](N4Cc5cc(NC(=O)c6cnn7cccnc67)c(OC(C)C)cc5C4=O)CC3)C2)cc2c1C(=O)N(C1CCC(=O)NC1=O)C2=O` (stereo partly drawn) [Example 321], the half-maximal degradation concentration (DC50) was in the range of 1 to 5 nM, the Dmax was no less than 90% and the “PBMC DC90” value was “A (A represents a DC90 value <10.0 nM)”.

On to `CCN(C1CN(c2ccc(C(=O)NC3CCC(=O)NC3=O)c(F)c2)C1)[C@H]1CC[C@H](n2cc3cc(NC(=O)c4cnn5cccnc45)c(OC(C)C)cc3n2)CC1` (stereo partly drawn) [Example 322], for which the DC50 was in the range of 1 to 5 nM, the Dmax was no less than 90% and the “PBMC DC90” value is “A (A represents a DC90 value <10.0 nM)”.

On to `CN(C1CCC(n2cc3cc(NC(=O)c4cnn5cccnc45)c(OCC4CC4)cc3n2)CC1)C1CCN(c2ccc3c(c2)C(=O)N(C2CCC(=O)NC2=O)C3=O)CC1` (stereo not drawn) [Example 323], for which the half-maximal degradation concentration (DC50) was less than 1 nM, the Dmax was no less than 90% and the “PBMC DC90” value is “A (A represents a DC90 value <10.0 nM)”.

For `CN(C1CN(c2ccc3c(c2)CN(C2CCC(=O)NC2=O)C3=O)C1)[C@H]1CC[C@H](n2cc3cc(NC(=O)c4cnn5cccnc45)c(OCC4CC4)cc3c2)CC1` (stereo partly drawn) [Example 324], the 50% degradation concentration (DC50) was less than 1 nM, the Dmax was no less than 90% and the “PBMC DC90” value is reported as “A (A represents a DC90 value <10.0 nM)”.

For the compound `CCN(C1CCC(n2cc3cc(NC(=O)c4cnn5cccnc45)c(OCC4CC4)cc3n2)CC1)C1CN(c2ccc3c(c2)C(=O)N(C2CCC(=O)NC2=O)C3=O)C1` (stereo not drawn) [Example 325], the DC50 lay in the range of 1 to 5 nM; the Dmax is no less than 90%; the “PBMC DC90” value is “C (C represents a DC90 value ≥25.0 nM and <50 nM)”.

In the case of `O=C1CCC(N2C(=O)c3ccc(N4CC(N(CC(F)F)C5CCC(n6cc7cc(NC(=O)c8cnn9cccnc89)c(OCC8CC8)cc7n6)CC5)C4)cc3C2=O)C(=O)N1` (stereo not drawn) [Example 326], the 50% degradation concentration (DC50) is 1 to 5 nM; the Dmax was no less than 90%; the “PBMC DC90” value was “B (B represents a DC90 value ≥10.0 nM and <25.0 nM)”.
